Reference: patent US20070259966A1, “Coadministration of Radiation, Efaproxiral Sodium, and Supplemental Oxygen for the Treatment of Cancer” (ALLOS THERAPEUTICS, INC., priority 2004, published 2007)

Key:
[1] = molecular target: T1, hemoglobin (Homo sapiens, UniProt P68871+P69905); assay: Predicted p50 shift from RBC concentration; assay type: in vivo; settings: at RBC concentration >483 μg/ml
T1 construct: endogenous in cells; host or cells: red blood cells of treated patients (in vivo)
Experimental: Sometimes, efaproxiral sodium is represented by the name 2-[4-[2-[(3,5-dimethylphenyl)amino]-2-oxoethyl]phenoxy]-2-methylpropanoic acid. In general efaproxiral sodium is administered as a physiologically acceptable salt, such as the monosodium salt; that is, X+ is Na+. Efaproxiral sodium induces allosteric modification of hemoglobin, such that its binding affinity for oxygen is decreased, resulting in increased oxygen distribution to tissues by erythrocytes.
(§1) Plasma and red blood cell (RBC) drug concentration were assayed on 2 days during the course of efaproxiral sodium administration: WBRT day 1 (end-infusion) and on 1 single day between WBRT days 6 and 10 (pre-infusion and end-infusion assays). Regression analysis was used to explore the relationship between trough and peak concentrations and continuous clinical covariates (eg, age, serum albumin, hematocrit, serum creatinine, etc). […] A dose of efaproxiral sodium was considered predicatably therapeutic if it achieved a sufficient RBC concentration (>483 μg/ml), and corresponded to a predicted p50 shift of 10 mmHg.

[2] = Plasma and red blood cell (RBC) drug concentration; assay type: in vivo, human
Experimental: as §1

[3] = system: patients with brain metastases; assay: Quality of life: Spitzer Questionnaire (SQ); assay type: in vivo, human
Experimental: (§2) C. Quality of Life. Quality of life was determined by means of the Spitzer Questionnaire (SQ) and Karnofsky Performance Status (KPS) assessment. The tests were performed at baseline, at WBRT day 10, and at all routine follow-up visits. A sustained drop in the KPS score to less than 60 was defined as a significant drop. The 5 questions comprising the Spitzer Questionnaire were weighted evenly. For each evaluation with at least 3 out of 5 questions answered, an average score was computed for each patient. Questionnaires with fewer than 3 questions answered were treated as missing data. The protocol specified a sustained drop in the Spitzer Questionnaire score of 2 points constituted a significant drop.

[4] = system: patients with brain metastases; assay: Safety / treatment-emergent adverse events in the controlled study; assay type: in vivo, human
Experimental: Depending upon an individual patient's resaturation time (time required to recover to a stable ≧90% SpO2 on room air) following efaproxiral sodium plus WBRT, supplemental oxygen use may be required for as little as 30 minutes to more than 4 hours. […] During this period of decreased oxygen saturation, patients require continuous SpO2 monitoring. If the desired SpO2 of ≧90% while breathing room air is not achieved, supplemental oxygen is to be continued and increased to a flow of 6-8 L/min, if necessary, until the SpO2 while breathing room air is stabilized at ≧90%.
Patients with brain metastases were administered efaproxiral sodium in a total dose of 0-100 mg/kg per day based on the dosing guidelines detailed above. In general, efaproxiral sodium is administered by intravenous infusion through a central venous access device over 30 minutes at a dose of 75 or 100 mg/kg daily with concurrent supplemental oxygen. Oxygen must be administered at 4 L/min via nasal cannula or facemask beginning 5 minutes prior to initiation of infusion, during infusion and WBRT, and for at least 15 minutes after completion of daily WBRT. Efaproxiral sodium is administered every day of a fractionated course of WBRT. Except when contraindicated, WBRT must be administered within 30 minutes of the end of the efaproxiral sodium infusion.
The patients were given the drug in one dose. Efaproxiral sodium was administered via central venous access with flow rate controlled by volumetric pump over a 30-45 minute interval with end-infusion no longer than 30 minutes prior to each radiation dose of a 10-day course of WBRT. Efaproxiral sodium was formulated as a sterile solution for injection and was supplied in single-use glass bottles containing 10 g efaproxiral sodium in 500 mL of 0.225% NaCl at a concentration of 20 mg/mL. Efaproxiral sodium was administered during the 10-day course of WBRT, for a maximum of 10 doses. A control group received radiation and supplemental oxygen only.
The majority of treatment-emergent adverse events were Grade 1 or 2 in severity, resolved spontaneously or within the duration of the study, and responded well to concomitant treatment with antiemetics for nausea/vomiting, nonsteroidal anti-inflammatory drugs for headache, supplemental oxygen for hypoxemia. […] Muscle weakness and dyspnea (reported in 3% of patients) were the most commonly reported Grade 3 adverse events in Control patients and both events were reported as a Grade 4 event in 1 patient each. The most commonly reported Grade 4 adverse event in both treatment and control groups was disease progression (reported in 6% of both groups).

[5] = system: patients with brain metastases; assay: Quality of life: Karnofsky Performance Status (KPS); assay type: in vivo, human
Experimental: as §2

T1 sequence (P69905 2-142 limits assumed): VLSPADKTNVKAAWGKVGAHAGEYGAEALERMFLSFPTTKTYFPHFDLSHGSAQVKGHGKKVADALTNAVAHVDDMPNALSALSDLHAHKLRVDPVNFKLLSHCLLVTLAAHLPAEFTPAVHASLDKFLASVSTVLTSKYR
T1 sequence (P68871 2-147 limits assumed): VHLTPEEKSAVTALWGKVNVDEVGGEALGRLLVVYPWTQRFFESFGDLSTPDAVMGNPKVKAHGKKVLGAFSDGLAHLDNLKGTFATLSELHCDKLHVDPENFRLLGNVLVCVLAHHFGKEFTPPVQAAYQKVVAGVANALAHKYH

Cc1cc(C)cc(NC(=O)Cc2ccc(OC(C)(C)C(=O)O)cc2)c1 [efaproxiral sodium, 2-[4-(((3,5-dimethylanilino)carbonyl)methyl)phenoxy]-2-methylpropionic acid]
predicted p50 shift [1]: 10 mmHg
drug accumulation in RBCs ([2]; WBRT week 2 preinfusion concentrations): No clinically relevant drug accumulation
concentrations in RBCs, higher body weight versus low weight patients ([2]; at a given dose): higher
concentrations in RBCs, breast primary versus NSCLC and other primary patients ([2]; in vivo): higher
change of concentrations in RBCs with dose ([2]; patients dosed at 75 or 100 mg/kg): proportional increase
patients with stable or improving SQ scores, (%) ([3]; 1 month): (42) %
patients with stable or improving SQ scores, (%) ([3]; 3 months): (23) %
patients with stable or improving SQ scores, (%) ([3]; 6 months): (16) %
patients with stable or improving SQ scores, (%) ([3]; 12 months): (9) %
percentage of patients with stable or improving SQ scores over time versus Control ([3]; χ2=3.4675, p=0.0626): trend toward a higher percentage
Grade 4 hypoxemia ([4]; in vivo): no Grade 4 hypoxemia was reported
severity of the majority of treatment-emergent adverse events ([4]; in vivo): Grade 1 or 2
duration of supplemental oxygen required after completion of WBRT ([4]; majority of doses, patients with brain metastases from breast cancer): one hour or less
Grade 3 hypoxemia, patients reporting ([4]; most commonly reported Grade 3 adverse event): 11%
Grade 4 disease progression, patients reporting ([4]; most commonly reported Grade 4 adverse event): 6%
patients with stable or improving KPS scores, (%) ([5]; 1 month): (44) %
patients with stable or improving KPS scores, (%) ([5]; 3 months): (24) %
patients with stable or improving KPS scores, (%) ([5]; 6 months): (18) %
patients with stable or improving KPS scores, (%) ([5]; 12 months): (7) %
distribution of KPS score categories between treatment groups ([5]; breast primary, 6 months and 1 year (p=0.0046 and p=0.0070)): statistically significant difference
percentage of patients with stable or improving KPS scores over time versus Control ([5]; χ2=9.0096, p=0.0027): highly statistically significant
